{
  "source": "paper PMC12339163",
  "about": "“Combining Plant Bioactives With Antibiotics for Enhanced Antibiofilm Activity Against Uropathogenic Staphylococcus spp. and Cytotoxicity Evaluation” (Advances in Pharmacological and Pharmaceutical Sciences, 2025)",
  "key": {"S. epidermidis biofilm": {"tested_on": "S. epidermidis biofilm", "assay": "Time-kill kinetic assay on biofilm inhibition", "type": "cell-based, Staphylococcus epidermidis", "conditions": "at 24 h", "method": "The biofilm formation inhibitory activity of NPs and ATBs was carried out according to the method previously described. A total of 100 µL of bacterial inoculum (1.5 × 10^6 CFU/mL) was used, and 100 µL of each sample was added to the microplate to achieve final concentrations ranging from 0.25 µg/mL to 128 µg/mL for ATBs and from 8 µg/mL to 1024 µg/mL for NPs. Then, the microplate was incubated at 37°C for 24 h. After incubation, the plates were gently emptied and washed three times with a phosphate buffer solution at pH 7.2. Then, the MTT solution (0.5 mg/mL) prepared in PBS was introduced into each well, and the microplate was further incubated at 37°C for 24 h. Untreated wells containing bacterial suspension and MHB supplemented with 1% glucose were considered positive controls, and wells containing only MHB+1% glucose without bacteria were used as blanks. After incubation, the MTT solution was aspirated, then 150 µL of DMSO was introduced to dissolve the formazan crystal formed by viable bacteria, and the optical density (OD) was measured at 570 nm using a microplate reader (VERSA-max). The percentage of biofilm inhibition was calculated using the formula below, and the minimal biofilm inhibitory concentration (MBIC) was recorded as the lowest concentration of NPs or ATBs that inhibited 100% of biofilm:(1) % biofilm inhibition=ODcontrol−ODblank−ODtest−ODblank/ODcontrol−ODblank×100.\nThe five best synergistic antibiofilm combinations were selected, and their ability to inhibit biofilm formation and eradication as a function of time was evaluated at 4-h intervals for 24 h by the microtiter plate method, as previously described. The synergistic antibiofilm combinations selected were with FICI < 0.4, named C1 to C5. C1: cefixime (5.33 µg/mL) + thymol (32 µg/mL); C2: cefazolin (1.16 µg/mL) + thymol (21.33 µg/mL); C3: amikacin (0.18 µg/mL) + curcumin (37.33 µg/mL); C4: kanamycin (0.25 µg/mL) + curcumin (14 µg/mL); and C5: amoxicillin (1.16 µg/mL) + curcumin (21.33 µg/mL). The kinetics of biofilm inhibition and eradication were performed as described above for the biofilm inhibition and eradication assay using the indicated combinations, followed by the reading of the optical densities (570 nm) at 4-h intervals over 24 h (0, 4, 8, 12, 16, and 24 h). In both cases, experiments were carried out three times in triplicate."}, "[1]": {"tested_on": "planktonic cells of Staphylococcus spp.", "assay": "Checkerboard combination assay, planktonic cells, synergistic combinations (Table 3)", "type": "cell-based", "conditions": "mean", "method": "The checkerboard assay, as previously described, was used for the determination of the fractional inhibitory concentration index (FICI). Briefly, 50 µL of MHB was distributed into each well of a 96-well microplate. ATBs were serially diluted along the abscissa, and NPs were serially diluted along the ordinate. Then, 100 µL of bacterial inoculum (1.5 × 10^6 CFU/mL) was added to each well and incubated at 37°C for 24 h. The final concentration ranged from 0.125 to 128 µg/mL for ATBs and 4–512 µg/mL for NPs. After incubation, a volume of 40 µL of INT solution (0.2 mg/mL) was added to each well, and the microplate was incubated at 37°C for 30 min. The wells containing bacterial inoculum and MHB were used as a positive control, while wells containing only MHB + 1% glucose were used as a negative control and used as a blank. Viable bacteria cells change the yellow dye of INT to a pink color. The MICs were considered to be the lowest NP concentrations that prevented the color change medium. Subsequently, the FICI was calculated according to the formula FICI = (MIC of the ATBs in combination/MIC of the ATBs alone) + (MIC of a natural substance in combination/MIC of the natural substance alone). FICI values were interpreted as follows: synergy when FICI ≤ 0.5; additive when 0.5 < FICI ≤ 1; indifference when 1 < FICI ≤ 4; and antagonism when FICI > 4."}, "[2]": {"conditions": "C2 and its components (cefazolin 1.16 µg/mL, thymol 21.33 µg/mL)"}, "[3]": {"conditions": "C1 and its components (cefixime 5.33 µg/mL, thymol 32 µg/mL)"}},
  "note": "Like-named read-outs stand apart in the source and are kept apart here.",
  "data": [
    {"smiles": "Cc1nnc(SCC2=C(C(=O)O)N3C(=O)[C@@H](NC(=O)Cn4cnnn4)[C@H]3SC2)s1", "note": "[Cefazolin, cefazolin]", "values": [
      {"measurement": "OD (570 nm), biofilm inhibition", "setting": "S. epidermidis biofilm; [2]", "result": 1.27}
    ]},
    {"smiles": "COc1cc(/C=C/C(=O)CC(=O)/C=C/c2ccc(O)c(OC)c2)ccc1O", "note": "[Curcumin, curcumin]", "values": [
      {"measurement": "MIC", "setting": "[1]; 24 h, read-out: MIC alone, NPs", "result": 384, "unit": "µg/mL"}
    ]},
    {"smiles": "C=CC1=C(C(=O)O)N2C(=O)[C@@H](NC(=O)/C(=N\\OCC(=O)O)c3csc(N)n3)[C@H]2SC1", "note": "[Cefixime, cefixime]", "values": [
      {"measurement": "OD (570 nm), biofilm inhibition", "setting": "S. epidermidis biofilm; [3]", "result": 0.84}
    ]},
    {"smiles": "Cc1ccc(C(C)C)c(O)c1", "note": "[Thymol, thymol]", "values": [
      {"measurement": "OD (570 nm), biofilm inhibition", "setting": "S. epidermidis biofilm; [3]", "result": 0.67},
      {"measurement": "OD (570 nm), biofilm inhibition", "setting": "S. epidermidis biofilm; [2]", "result": 0.96},
      {"measurement": "MIC", "setting": "[1]; 24 h, read-out: MIC alone, NPs", "result": 427, "unit": "µg/mL"}
    ]},
    {"smiles": "O=C(O)c1cc(O)c(O)c(O)c1", "note": "[Gallic acid, 3,4,5-trihydroxybenzoic acid]", "values": [
      {"measurement": "MIC", "setting": "[1]; 24 h, read-out: MIC alone, NPs", "result": 512, "unit": "µg/mL"}
    ]},
    {"smiles": "NCC[C@H](O)C(=O)N[C@@H]1C[C@H](N)[C@@H](O[C@H]2O[C@H](CN)[C@@H](O)[C@H](O)[C@H]2O)[C@H](O)[C@H]1O[C@H]1O[C@H](CO)[C@@H](O)[C@H](N)[C@H]1O", "note": "[Amikacin, amikacin]", "values": [
      {"measurement": "MIC", "setting": "[1]; read-out: MIC alone, ATB", "result": 1.16, "unit": "µg/mL"}
    ]},
    {"smiles": "C[C@H]1c2cccc(O)c2C(=O)C2=C(O)[C@]3(O)C(=O)C(C(N)=O)=C(O)[C@@H](N(C)C)[C@@H]3[C@@H](O)[C@@H]21", "note": "[Doxycycline, doxycycline]", "values": [
      {"measurement": "MIC", "setting": "[1]; read-out: MIC alone, ATB", "result": 7, "unit": "µg/mL"}
    ]}
  ]
}
